The text below walks through data of patent publication US20260317324A1, “BIFUNCTIONAL COMPOUNDS FOR DEGRADING BRAF VIA UBIQUITIN PROTEOSOME PATHWAY” (Nurix Therapeutics, Inc., priority 2023, published 2026).

For orientation: DC50 means the midpoint of the concentration-degradation curve. Higher therefore signals a less potent degrader. By Dmax is commonly meant the largest share of the target that was removed. A low value points to a partial loss of target.

What all share (type): cell-based
The target of experiment [1] is T1, BRAF V600E (Homo sapiens, UniProt P15056, V600E).
T1 construct: endogenous C-terminal HiBiT fusion tag on BRAF V600E allele; endogenous in cells; host or cells: A375 clone 1F10 (CRISPR-Cas9 knock-in of the HiBiT tag; parental A375 from ATCC)
T1 sequence (P15056 whole entry V600E, the tested form may be a part): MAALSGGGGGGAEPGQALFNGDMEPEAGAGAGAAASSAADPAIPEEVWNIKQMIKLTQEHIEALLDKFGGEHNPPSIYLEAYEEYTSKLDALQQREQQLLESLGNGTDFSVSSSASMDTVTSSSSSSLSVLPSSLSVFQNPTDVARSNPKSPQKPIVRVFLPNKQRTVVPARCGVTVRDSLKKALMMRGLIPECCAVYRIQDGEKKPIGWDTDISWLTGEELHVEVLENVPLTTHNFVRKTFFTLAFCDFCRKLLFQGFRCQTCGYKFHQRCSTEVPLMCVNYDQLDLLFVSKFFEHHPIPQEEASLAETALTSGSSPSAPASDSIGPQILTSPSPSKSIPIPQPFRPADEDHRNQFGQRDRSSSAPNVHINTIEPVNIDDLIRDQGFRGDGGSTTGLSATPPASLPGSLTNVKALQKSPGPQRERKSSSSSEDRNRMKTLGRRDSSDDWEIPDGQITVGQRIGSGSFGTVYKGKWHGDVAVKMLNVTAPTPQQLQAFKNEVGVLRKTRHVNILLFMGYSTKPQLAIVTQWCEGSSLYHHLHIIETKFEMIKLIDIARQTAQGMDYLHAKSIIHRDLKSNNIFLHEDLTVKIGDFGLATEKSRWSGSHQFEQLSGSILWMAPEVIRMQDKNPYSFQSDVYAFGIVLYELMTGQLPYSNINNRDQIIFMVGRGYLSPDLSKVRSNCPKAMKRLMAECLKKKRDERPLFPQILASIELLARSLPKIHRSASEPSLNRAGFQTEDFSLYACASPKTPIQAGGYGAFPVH
Description: BRAF HiBiT degradation assay, C-terminal HiBiT-tagged BRAF V600E A375 cells (clone 1F10), Nano-Glo HiBiT Lytic assay. As to conditions: for Dmax: A-375. The gist of the method: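 Luminescence from the Nano-Glo HiBiT lytic read-out gave % BRAF V600E remaining versus DMSO-treated tagged cells, with untagged A375 as background. Clone 1F10 cells (10,000/well, 24 h pre-culture) received compound at 1 μM–0.01 nM in half-log steps, 0.2% DMSO; curve fits gave DC50 at Y=50, plus observed Dmax.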

For experiment [2], the target named is T2, BRAF G466V (Homo sapiens, UniProt P15056, G466V).
T2 construct: Horizon Discovery (HCT-116 BRAF−/− cells); host or cells: HCT-116 BRAF−/− cells, clone 8, lentiviral transduction
T2 sequence (P15056 whole entry G466V): as the sequence (P15056 whole entry V600E, the tested form may be a part) above, with G466V, E600V counted along it
Description: BRAF HiBiT degradation assay, C-terminal HiBiT-tagged BRAF G466V overexpressed in HCT-116 BRAF−/− cells (clone 8), Nano-Glo HiBiT Lytic assay. An excerpt: (§1) An A375 cell line expressing a homozygous V600E mutation was purchased from ATCC (Manassas, VA, USA). An A375 clone 1F10 cell line with an endogenous C-terminal HiBiT fusion tag on BRAF V600E allele was generated internally using CRISPR-Cas9 technology and cultured in DMEM, high glucose supplemented with 10% FBS and 1× GlutaMAX. A HCT-116 BRAF−/− cell line overexpressing the C-terminal HiBiT-tagged G466V, G469A, and D594G mutants were generated by lentiviral transduction, externally at Biosettia Inc (San Diego, CA, USA). The stably transfected cells were cultured in RPMI media supplemented with 10% FBS, 1× GlutaMAX, and 0.25 μg/ml puromycin. DMEM medium, RPMI 1640 medium, GlutaMAX, fetal bovine serum (FBS), and puromycin were purchased from Gibco (Grand Island, NY, USA). HCT-116 BRAF−/− cells were purchased from Horizon Discovery (Waterbeach, UK).
(§2) The C-terminal HiBiT tagged mutant BRAF G466V, G469A, and D594G overexpressed in HCT-116 BRAF−/− cells (monoclonal cell line, cell clones 8, 34, and 63, respectively) were seeded at the density of 3,000 cells/well in 30 μL media (RPMI supplemented with 10% FBS and 1× GlutaMAX) in white opaque 384-well plates (Corning #3570) from column 1 to column 23. Wildtype HCT-116 BRAF cells were seeded in column 24 at the same cell density in 30 μL media. Cells were incubated at 37° C. with 5% CO2 for 24 h.
(§3) Intermediate compound dilution series (5-point, ranging from 5 mM to 0.5 μM, 10-fold dilutions in DMSO) were prepared in a source plate (Beckman Coulter cat. no. 001-16128). Final compound dilution series (11-point, ranging from 1 μM to 0.01 nM, half-log dilutions in DMSO) were stamped into the assay plate (Corning #3570, column 1-11 and 12-22) using the Echo Acoustic Liquid Handler (Beckman Coulter). Each compound was plated in duplicate, and the total volume of compound DMSO solution was 60 nL/well (0.2% final DMSO concentration). DMSO was included in wells A23-L23 and A24-L24. The DMSO-treated HiBiT-tagged samples served as Negative Control (NC) and the DMSO-treated wildtype samples served as Background Control (BC) for the HiBiT assay.
(§4) HiBiT signal was measured by a Nano-Glo HiBiT Lytic assay (Promega cat. no. N3050). HiBiT lytic detection reagent (Nano-Glo HiBiT Lytic Buffer with 1:50 Nano-Glo HiBiT Lytic Substrate and 1:100 LgBiT Protein, 40 μL) was added using Bravo. The mixture was incubated at room temperature, in the dark, and with gentle shaking for 10 min. Luminesce units (LU) were read on an EnVision plate reader 2105 (Perkin Elmer).
(§5) Percent protein remaining and viability remaining per sample were calculated as follows: […]
(§6) % Protein remaining values were plotted as a function of compound concentration. XC50 (DC50) values were determined by fitting curves using the following equation:
(§7) For the HiBiT degradation assay, the key parameters reported include: • The dose of compound that produces 50% degradation (DC50 at 50%): • DC50 at 50%: the Fitted X value (Conc.) at Y=50 (response) • Observed Dmax (Obs. Dmax) is the percentage protein degraded at maximal compound effect relative to DMSO-treated control: […]
For orientation: HiBiT is a short tag that completes a luciferase, so light tracks the accessible tagged protein.

Experiment [3] has as its target T3, BRAF G469A (Homo sapiens, UniProt P15056, G469A).
T3 construct: Horizon Discovery (HCT-116 BRAF−/− cells); host or cells: HCT-116 BRAF−/− cells, clone 34, lentiviral transduction
Description: BRAF HiBiT degradation assay, C-terminal HiBiT-tagged BRAF G469A overexpressed in HCT-116 BRAF−/− cells (clone 34), Nano-Glo HiBiT Lytic assay.
Source text: as §1, §2, §3, §4, §5, §6, §7

The target of experiment [4] is T4, BRAF D594G (Homo sapiens, UniProt P15056, D594G).
T4 construct: Horizon Discovery (HCT-116 BRAF−/− cells); host or cells: HCT-116 BRAF−/− cells, clone 63, lentiviral transduction
T4 sequence (P15056 whole entry D594G): as the sequence (P15056 whole entry V600E, the tested form may be a part) above, with D594G, E600V counted along it
Description: BRAF HiBiT degradation assay, C-terminal HiBiT-tagged BRAF D594G overexpressed in HCT-116 BRAF−/− cells (clone 63), Nano-Glo HiBiT Lytic assay.
Source text: as §1, §2, §3, §4, §5, §6, §7

[5] abbreviates: A375 (BRAF V600E), DC50 at 50%: fitted conc. at Y=50.
[6] abbreviates: A375 (BRAF V600E), percentage protein degraded at maximal compound effect relative to DMSO.
Where [7] appears, read: BRAF G466V, DC50 at 50%: fitted conc. at Y=50.
The mark [8] stands for this setting: HCT-116, BRAF G466V, percentage protein degraded at maximal compound effect relative to DMSO.
Setting [9] is: Class 2, BRAF G469A, DC50 at 50%: fitted conc. at Y=50.
The mark [10] stands for this setting: HCT-116, Class 2, BRAF G469A, percentage protein degraded at maximal compound effect relative to DMSO.
[11] abbreviates: BRAF D594G, DC50 at 50%: fitted conc. at Y=50.
The mark [12] stands for this setting: HCT-116, BRAF D594G, percentage protein degraded at maximal compound effect relative to DMSO.

T3 sequence (P15056 whole entry G469A): as the sequence (P15056 whole entry V600E, the tested form may be a part) above, with G469A, E600V counted along it

For `CCCS(=O)(=O)Nc1cccc(-c2cn(-c3ccc(C4CCN(CC5CCN(c6ccc(C7CCC(=O)NC7=O)cn6)CC5)CC4)cc3)nc2-c2ccncc2)c1F` (racemic) [Compound 24, Rac-N-{3-[1-(4-{1-[(1-{5-[(3R)-2,6-dioxopiperidin-3-yl]pyridin-2-yl}piperidin-4-yl)methyl]piperidin-4-yl}phenyl)-3-(pyridin-4-yl)-1H-pyrazol-4-yl]-2-fluorophenyl}propane-1-sulfonamide], the DC50 in experiment [1] (setting [5]) was 10 to 50 nM; in experiment [2] (setting [7]) it was 10 to 50 nM; in experiment [3] (setting [9]) it was greater than 500 nM; in experiment [4] (setting [11]) it was greater than 500 nM. Moreover, the Dmax in experiment [1] (setting [6]) was greater than 70%; in experiment [2] (setting [8]), 30 to 70%; in experiment [3] (setting [10]), less than 30%; in experiment [4] (setting [12]) it was 30 to 70%.

With `O=C1CCN(c2ccc(N3CCC(CN4CCN(c5ccc(-n6cc(-c7cc(Cl)cc(NS(=O)(=O)N8CC[C@@H](F)C8)c7F)c(-c7ccncc7)n6)nc5)CC4)CC3)cc2)C(=O)N1` [Compound 295, (3R)—N-[5-chloro-3-(1-{5-[4-({1-[4-(2,4-dioxo-1,3-diazinan-1-yl)phenyl]piperidin-4-yl}methyl)piperazin-1-yl]pyridin-2-yl}-3-(pyridin-4-yl)-1H-pyrazol-4-yl)-2-fluorophenyl]-3-fluoropyrrolidine-1-sulfonamide], the DC50 is less than 10 nM in experiment [1] (A375 (BRAF V600E, Class 1), DC50 at 50% degradation); less than 10 nM in experiment [2] (BRAF G466V (Class 3), HCT-116 BRAF−/− cells, DC50 at 50% degradation); 50 to 500 nM in experiment [3] (BRAF G469A (Class 2), HCT-116 BRAF−/− cells, DC50 at 50% degradation); less than 10 nM in experiment [4] (BRAF D594G (Class 3), HCT-116 BRAF−/− cells, DC50 at 50% degradation). Moreover, the Dmax in experiment [1] (A375 (BRAF V600E, Class 1), observed Dmax, % protein degraded relative to DMSO control) was greater than 70%; in experiment [2] (BRAF G466V (Class 3), HCT-116 BRAF−/− cells, observed Dmax relative to DMSO control), 30 to 70%; in experiment [3] (BRAF G469A (Class 2), HCT-116 BRAF−/− cells, observed Dmax relative to DMSO control) it was 30 to 70%; in experiment [4] (BRAF D594G (Class 3), HCT-116 BRAF−/− cells, observed Dmax relative to DMSO control), 30 to 70%.

For the molecule `CCCS(=O)(=O)Nc1cccc(-c2nc(C3CCN(C(=O)C4CCN(C(=O)C5CCN(c6ccc(C7CCC(=O)NC7=O)cn6)CC5)CC4)CC3)sc2-c2ccncn2)c1F` (racemic) [Compound 220, Rac-N-[3-(2-{1-[1-(1-{5-[(3R)-2,6-dioxopiperidin-3-yl]pyridin-2-yl}piperidine-4-carbonyl)piperidine-4-carbonyl]piperidin-4-yl}-5-(pyrimidin-4-yl)-1,3-thiazol-4-yl)-2-fluorophenyl]propane-1-sulfonamide], the DC50 in experiment [1] (setting [5]) was less than 10 nM; in experiment [2] (setting [7]), 10 to 50 nM; in experiment [3] (setting [9]) it was greater than 500 nM; in experiment [4] (setting [11]) it was less than 10 nM. Besides, the Dmax in experiment [1] (setting [6]) is greater than 70%; in experiment [2] (setting [8]), 30 to 70%; in experiment [3] (setting [10]), 30 to 70%; in experiment [4] (setting [12]), 30 to 70%.

Take `CCCS(=O)(=O)Nc1cccc(-c2nc(C3(C)CCN(C(=O)C4CCN(CC5CCN(c6ccc(C7CCC(=O)NC7=O)cc6)CC5)CC4)CC3)sc2-c2ccnc(N)n2)c1F` (racemic) [Compound 227, Rac-N-{3-[5-(2-aminopyrimidin-4-yl)-2-(1-{1-[(1-{4-[(3R)-2,6-dioxopiperidin-3-yl]phenyl}piperidin-4-yl)methyl]piperidine-4-carbonyl}-4-methylpiperidin-4-yl)-1,3-thiazol-4-yl]-2-fluorophenyl}propane-1-sulfonamide]: the DC50 was less than 10 nM in experiment [1] (setting [5]), greater than 500 nM in experiment [2] (setting [7]), greater than 500 nM in experiment [3] (setting [9]) and greater than 500 nM in experiment [4] (setting [11]). Moreover, the Dmax is greater than 70% in experiment [1] (setting [6]), 30 to 70% in experiment [2] (setting [8]), 30 to 70% in experiment [3] (setting [10]) and 30 to 70% in experiment [4] (setting [12]).

Regarding `CCCS(=O)(=O)Nc1cccc(-c2cn(-c3ccc(N4CCN(CC5CCN(c6ccc([C@H]7CCC(=O)NC7=O)cn6)CC5)CC4)cc3)nc2-c2ccncc2)c1F` [Compound 2, N-{3-[1-(4-{4-[(1-{5-[(3R)-2,6-dioxopiperidin-3-yl]pyridin-2-yl}piperidin-4-yl)methyl]piperazin-1-yl}phenyl)-3-(pyridin-4-yl)-1H-pyrazol-4-yl]-2-fluorophenyl}propane-1-sulfonamide], the DC50 in experiment [1] (setting [5]) lay in the range of 50 to 500 nM; in experiment [2] (setting [7]) it was 10 to 50 nM; in experiment [3] (setting [9]) it was 10 to 50 nM; in experiment [4] (setting [11]) it was 10 to 50 nM. For the same molecule, the Dmax in experiment [1] (setting [6]) is greater than 70%; in experiment [2] (setting [8]), 30 to 70%; in experiment [3] (setting [10]), 30 to 70%; in experiment [4] (setting [12]), 30 to 70%.

As for `CCN(C)S(=O)(=O)Nc1cccc(-c2nc(C(C)(C)C)sc2-c2ccnc(Nc3ccc(N4CCN(C(=O)CN5CCc6cc(C7CCC(=O)NC7=O)ccc6C5)CC4)c(F)c3)n2)c1F` (racemic) [Compound 28, Rac-(3R)-3-[2-(2-{4-[4-({4-[2-tert-butyl-4-(3-{[ethyl(methyl)sulfamoyl]amino}-2-fluorophenyl)-1,3-thiazol-5-yl]pyrimidin-2-yl}amino)-2-fluorophenyl]piperazin-1-yl}-2-oxoethyl)-1,2,3,4-tetrahydroisoquinolin-6-yl]piperidine-2,6-dione], the DC50 in experiment [1] (setting [5]) is less than 10 nM; in experiment [2] (setting [7]), less than 10 nM; in experiment [3] (setting [9]), 10 to 50 nM; in experiment [4] (setting [11]) it was 10 to 50 nM. For the same molecule, the Dmax in experiment [1] (setting [6]) is greater than 70%; in experiment [2] (setting [8]), 30 to 70%; in experiment [3] (setting [10]) it was 30 to 70%; in experiment [4] (setting [12]), 30 to 70%.

Consider `CCCS(=O)(=O)Nc1cccc(-c2nc(C3CCN(C(=O)C4(C)CCN(C(=O)CC5CCN(c6ccc(C7CCC(=O)NC7=O)cn6)CC5)CC4)CC3)sc2-c2ccnc(N)n2)c1F` (racemic) [Compound 194, Rac-N-{3-[5-(2-aminopyrimidin-4-yl)-2-(1-{1-[2-(1-{5-[(3R)-2,6-dioxopiperidin-3-yl]pyridin-2-yl}piperidin-4-yl)acetyl]-4-methylpiperidine-4-carbonyl}piperidin-4-yl)-1,3-thiazol-4-yl]-2-fluorophenyl}propane-1-sulfonamide], for which the DC50 in experiment [1] (setting [5]) was less than 10 nM; in experiment [2] (setting [7]), greater than 500 nM; in experiment [3] (setting [9]), greater than 500 nM; in experiment [4] (setting [11]), greater than 500 nM. Also, the Dmax in experiment [1] (setting [6]) is greater than 70%; in experiment [2] (setting [8]) it was 30 to 70%; in experiment [3] (setting [10]), less than 30%; in experiment [4] (setting [12]) it was 30 to 70%.
